Series [1] can be described thus: Dark toxicity against human HT-29 cells assessed as reduction in cell survival measured after 30 mins by MTT assay. In kind it is cell-based.
Series [2] is described as follows: Photocytotoxicity against human HeLa cells assessed as reduction in cell survival irradiated with 1.5 J/cm2 UV-light for 5 mins measured after 48 hrs by MTT assay. Type of series: functional, cell-based. The conditions noted are these: light or radiation study. Background: Formazan colour is commonly taken as a measure of viable cells.
Series [3] can be described thus: Dark toxicity against human HeLa cells assessed as reduction in cell survival measured after 30 mins by MTT assay. Type of series: cell-based.
Series [4] is described as follows: Selectivity index, ratio of CC50 for cytotoxicity against human HeLa cells to EC50 for photocytotoxicity against human HeLa cells. In kind it is toxicity, cell-based. The conditions noted are these: read-out: Ratio CC50/EC50.
A short description of series [5]: Dark toxicity against human MCF7 cells assessed as reduction in cell survival measured after 30 mins by MTT assay. In kind it is cell-based.
A short description of series [6]: Photocytotoxicity against human MCF7 cells assessed as reduction in cell survival irradiated with 1.5 J/cm2 UV-light for 5 mins measured after 48 hrs by MTT assay. Type of series: functional, cell-based. Conditions: MCF7, light or radiation study.
The nature of series [7]: Photocytotoxicity against human HT-29 cells assessed as reduction in cell survival irradiated with 1.5 J/cm2 UV-light for 5 mins measured after 48 hrs by MTT assay. Type of series: functional, cell-based. Conditions: HT-29, light or radiation study.
Series [8] can be described thus: Selectivity index, ratio CC50 for cytotoxicity against human HT-29 cells to EC50 for photocytotoxicity against human HT-29 cells. Conditions: read-out: Ratio CC50/EC50. In kind it is toxicity, cell-based.
Series [9] in a line: Selectivity index, ratio CC50 for cytotoxicity against human MCF7 cells to EC50 for photocytotoxicity against human MCF7 cells. Type of series: toxicity, cell-based. The conditions noted are these: read-out: Ratio CC50/EC50.
Series [10] relates to MCF7. Description: Dark toxicity against human MCF7 cells assessed as increase in production of radical oxygen species at 1 to 4 uM after 2 hrs by H2DCFDA dye based fluorescence assay. In kind it is cell-based. The conditions noted are these: mcf7, 2 h.
Series [11] in a line: Photocytotoxicity against human MCF7 cells assessed as increase in production of radical oxygen species at 4 uM pretreated for 30 mins followed by 1.5 J/cm2 UV-light irradiation for 5 mins measured after 2 hrs by H2DCFDA dye based fluorescence assay relative to control. Type of series: functional.

SMILES strings stand for the structures. A value given as a limit tells only on which side of the number the result lay.

The term CC50 denotes the concentration that lowers cell viability or growth by half. One may read the EC50 as the concentration that produces a half-maximal response. Turning to `COc1ccc(Cn2c(C(N)=O)cc3c2-c2nc(NC4CCCCC4)ncc2CCC3)cc1`, the CC50 at 0.5 h in [1], in series [3] and in [5] was greater than 100 µM each time. For the same compound, the EC50 in series [2] turned out to be 0.12 µM; in [6] it was 0.18 µM; in [7], 0.41 µM. In addition, the selectivity ratio in series [4] is greater than 813; in series [8], greater than 243; in series [9] it was greater than 549.
Turning to `COc1ccc(Cn2c(C(N)=O)cc3c2-c2nc(Nc4ccccc4)ncc2CCC3)cc1`, the CC50 at 0.5 h in series [1], in [3] and in series [5] was greater than 100 µM throughout. Further, the EC50 came out at 0.16 µM in series [2], 0.28 µM in series [6] and 0.28 µM in series [7]. The selectivity ratio in [4] was greater than 610; in series [8], greater than 360; in series [9], greater than 358.
Turning to `CCOC(=O)c1cc2c(n1Cc1ccccc1)-c1nc(N)ncc1CCC2`, the CC50 at 0.5 h in [1] was 79.2 µM; in series [3], greater than 100 µM; in [5], 73.6 µM. The EC50 in series [2] was found to be 0.22 µM; in series [6], 0.79 µM; in [7] it was 0.28 µM. Also, the selectivity ratio is greater than 455 in [4], 284 in [8] and 93 in [9].
On to `COc1ccc(Cn2c(C(N)=O)cc3c2-c2nc(N)ncc2CCC3)cc1`, for which the half-maximal cytotoxic concentration (CC50) at 0.5 h in series [1], in series [3] and in [5] was greater than 100 µM each time. Further, the EC50 in series [2] worked out at 1.14 µM; in [6] it was 3.26 µM; in series [7], 2 µM. Further, the selectivity ratio was greater than 88 in [4], greater than 50 in [8] and greater than 31 in series [9].
For the compound `Cn1c(C(N)=O)cc2c1-c1nc(NC3CCCCC3)ncc1CCC2`, the CC50 at 0.5 h in series [1] is greater than 100 µM; in series [3], greater than 100 µM; in series [5], 75.2 µM. Besides, the values for the concentration giving a half-maximal response (EC50) in series [2], in [6] and in series [7] were 0.82 µM, 1.85 µM and 1.5 µM, respectively. The selectivity ratio in series [4] was greater than 121; in series [8], greater than 67; in series [9] it was 41.
As for `NC(=O)c1cc2c(n1Cc1ccccc1)-c1nc(N)ncc1CCC2`, the CC50 at 0.5 h in series [1], in series [3] and in [5] was greater than 100 µM in each case. Also, the EC50 worked out at 2.09 µM in [2], 3.69 µM in series [6] and 2.17 µM in [7]. The selectivity ratio is greater than 48 in series [4], greater than 46 in series [8] and greater than 27 in [9].
In the case of `CCOC(=O)c1cc2c(n1Cc1ccc(OC)cc1)-c1nc(NC3CCCCC3)ncc1CCC2`, the CC50 at 0.5 h in series [1], in series [3] and in [5] was greater than 100 µM in each case. For the same compound, the values for the EC50 in [2], in series [6] and in series [7] were 0.07 µM, 0.11 µM and 0.14 µM, respectively. Besides, the results for the selectivity ratio in series [4], in [8] and in series [9] were greater than 1360, greater than 735 and greater than 952, respectively.
Take `NC(=O)c1cc2c(n1Cc1ccccc1)-c1nc(Nc3ccccc3)ncc1CCC2`: the CC50 at 0.5 h in [1] was greater than 100 µM; in series [3], greater than 100 µM; in series [5], 66.5 µM. The results for the EC50 in series [2], in [6] and in series [7] were 0.25 µM, 1.04 µM and 0.36 µM, respectively. For the same compound, the selectivity ratio in series [4] was greater than 397; in [8] it was greater than 281; in series [9], 64.
Take `CCOC(=O)c1cc2c(n1C)-c1nc(N)ncc1CCC2`: the CC50 at 0.5 h in series [1], in series [3] and in [5] was greater than 100 µM each time. The half-maximal effective concentration (EC50) in series [2] was 0.72 µM; in series [6], 1.54 µM; in series [7], 1.72 µM. For the same compound, the figures for the selectivity ratio in series [4], in series [8] and in [9] were greater than 139, greater than 58 and greater than 65, respectively.
For the compound `CCOC(=O)c1cc2c(n1C)-c1nc(Nc3ccccc3)ncc1CCC2`, the CC50 at 0.5 h in [1], in series [3] and in series [5] was greater than 100 µM each time. The EC50 came out at 0.1 µM in series [2], 0.14 µM in series [6] and 0.29 µM in [7]. For the same compound, the selectivity ratio in series [4] was greater than 1040; in series [8] it was greater than 348; in series [9], greater than 709.
For `CCOC(=O)c1cc2c(n1Cc1ccc(OC)cc1)-c1nc(Nc3ccccc3)ncc1CCC2`, the CC50 at 0.5 h in series [1], in series [3] and in series [5] was greater than 100 µM in each case. The EC50 in [2] is 0.18 µM; in [6] it was 0.86 µM; in series [7], 0.07 µM. For the same compound, the selectivity ratio in series [4] was greater than 559; in [8], greater than 1470; in [9], greater than 117.
Take `CCOC(=O)c1cc2c(n1Cc1ccccc1)-c1nc(NC3CCCCC3)ncc1CCC2`: the CC50 at 0.5 h in [1], in series [3] and in [5] was greater than 100 µM each time. Further, the EC50 in [2] was 0.06 µM; in series [6] it was 0.1 µM; in series [7], 0.08 µM. In addition, the selectivity ratio was greater than 1670 in [4], greater than 1240 in [8] and greater than 1050 in series [9]. In addition, the Activity result is “Non-Toxic” in series [10] and 198% in [11].
Consider `Cn1c(C(N)=O)cc2c1-c1nc(Nc3ccccc3)ncc1CCC2`, for which the CC50 at 0.5 h in series [1], in series [3] and in [5] was greater than 100 µM in each case. In addition, the results for the EC50 in series [2], in series [6] and in [7] were 1.12 µM, 4.96 µM and 1.85 µM, respectively. Also, the selectivity ratio was greater than 90 in series [4], greater than 54 in [8] and greater than 20 in series [9].
On to `CCOC(=O)c1cc2c(n1Cc1ccc(OC)cc1)-c1nc(N)ncc1CCC2`, for which the CC50 at 0.5 h in series [1], in series [3] and in series [5] was greater than 100 µM each time. In addition, the results for the EC50 in [2], in series [6] and in [7] were 0.32 µM, 0.67 µM and 0.29 µM, respectively. For the same compound, the selectivity ratio is greater than 312 in series [4], greater than 348 in series [8] and greater than 150 in [9].
Take `NC(=O)c1cc2c(n1Cc1ccccc1)-c1nc(NC3CCCCC3)ncc1CCC2`: the CC50 at 0.5 h in [1], in series [3] and in series [5] was greater than 100 µM each time. In addition, the values for the EC50 in [2], in series [6] and in series [7] were 0.22 µM, 0.18 µM and 0.37 µM, respectively. In addition, the selectivity ratio was greater than 463 in series [4], greater than 270 in series [8] and greater than 569 in series [9].
With `CCOC(=O)c1cc2c(n1Cc1ccccc1)-c1nc(Nc3ccccc3)ncc1CCC2`, the CC50 at 0.5 h in series [1], in series [3] and in series [5] was greater than 100 µM throughout. Also, the concentration for a half-maximal effect (EC50) is 0.28 µM in series [2], 0.24 µM in series [6] and 0.7 µM in series [7]. For the same compound, the selectivity ratio in [4] was greater than 355; in series [8], greater than 143; in [9] it was greater than 412.

The record behind these values is ChEMBL document CHEMBL3872210, “Synthesis and antiproliferative mechanism of action of pyrrolo[3',2':6,7] cyclohepta[1,2-d]pyrimidin-2-amines as singlet oxygen photosensitizers” (Eur J Med Chem, 2016).
